# Laboratory results from US20060019892A1 (Florida Atlantic University, priority 2003, published 2006).
# Non-standard residues stand in square brackets, D forms with d. No end group written: not given here. Hyp = O=C(O)[C@@H]1C[C@@H](O)CN1
# System: primary cultures of rat neonatal cortex (cultured cortical neurons)
# Assay type: cell-based
substance,measurement,value
A-O-A-N-S-V-W-S (A[Hyp]ANSVWS) [gla-2],effect on Ca^++ flux in the cells,reducing Ca^++ flux
same,modulation of Ca^++ flux in cultured neurons from rat cortex,modulate Ca^++ flux
